Measured values as given in ChEMBL document CHEMBL2057124, “Benzoheterocyclic amodiaquine analogues with potent antiplasmodial activity: synthesis and pharmacological evaluation” (Bioorg Med Chem Lett, 2012).
Blank lines part the entries; values can stand above or below the molecule they belong to.

How the values were obtained:
Plasmodium falciparum [1] = test: Antiplasmodial activity against chloroquine-resistant Plasmodium falciparum W2 infected in human erythrocytes after 48 hrs by Geimsa staining; type: functional, organism-based; details: W2, 48 h
Plasmodium falciparum [2] = test: Antiplasmodial activity against chloroquine-resistant Plasmodium falciparum K1 assessed as [3H]hypoxanthine incorporation after 24 hrs by scintillation counting; type: functional, organism-based
L6 = test: Cytotoxicity against rat L6 cells after 72 hrs by alamar blue assay; type: cell-based; details: L6, 72 h
[3] = Selectivity ratio of IC50 for rat L6 cells to IC50 for […]; type: ADME, cell-based; details: read-out: Ratio IC50
Plasmodium falciparum [4] = test: Resistance ratio of IC50 for chloroquine-resistance Plasmodium falciparum K1 to IC50 for […]; type: functional

Compound: CCN(CC)Cc1cc(Nc2ccnc3cc(Cl)ccc23)ccc1O
IC50 (Plasmodium falciparum [1]): 5 nM
IC50 (Plasmodium falciparum [2]): 8 nM

Compound: CC(C)(C)Nc1nc2cc(Nc3ccnc4cc(Cl)ccc34)ccc2s1
IC50 (Plasmodium falciparum [1]): 1160 nM
IC50 (Plasmodium falciparum [2]): 917 nM
IC50 (L6): 4130 nM
selectivity ratio [3]: 3.56

Compound: Clc1ccc2c(Nc3ccc4sc(NCCN5CCCC5)nc4c3)ccnc2c1
IC50 (Plasmodium falciparum [1]): 12 nM
IC50 (Plasmodium falciparum [2]): 14 nM
IC50 (L6): 5120 nM
selectivity ratio [3]: 426
Ratio IC50 (Plasmodium falciparum [4]): 1.2

Compound: Clc1ccc2c(Nc3ccc4sc(NCCN5CCCCC5)nc4c3)ccnc2c1
IC50 (Plasmodium falciparum [1]): 13 nM
IC50 (Plasmodium falciparum [2]): 7 nM
IC50 (L6): 3540 nM
selectivity ratio [3]: 272

Compound: Clc1ccc2c(Nc3ccc4sc(NCCN5CCOCC5)nc4c3)ccnc2c1
IC50 (Plasmodium falciparum [1]): 40 nM
IC50 (Plasmodium falciparum [2]): 25 nM
IC50 (L6): 4670 nM
selectivity ratio [3]: 117

IC50 (Plasmodium falciparum [1]): 11 nM
Compound: CCN(CC)CCNc1nc2cc(Nc3ccnc4cc(Cl)ccc34)ccc2s1

Compound: CCNc1nc2cc(Nc3ccnc4cc(Cl)ccc34)ccc2o1
IC50 (Plasmodium falciparum [1]): 491 nM
IC50 (Plasmodium falciparum [2]): 921 nM
IC50 (L6): 16400 nM
selectivity ratio [3]: 33.3

Compound: Clc1ccc2c(Nc3ccc4oc(NCCN5CCCC5)nc4c3)ccnc2c1
IC50 (Plasmodium falciparum [1]): 8 nM
IC50 (Plasmodium falciparum [2]): 22 nM
IC50 (L6): 8700 nM
selectivity ratio [3]: 1090
Ratio IC50 (Plasmodium falciparum [4]): 2.8

Compound: CCNc1nc2cc(Nc3ccnc4cc(Cl)ccc34)ccc2[nH]1
IC50 (Plasmodium falciparum [1]): 501 nM
IC50 (Plasmodium falciparum [2]): 249 nM
IC50 (L6): 5710 nM
selectivity ratio [3]: 11.4

Compound: Clc1ccc2c(Nc3ccc4[nH]c(NCCN5CCCCC5)nc4c3)ccnc2c1
IC50 (Plasmodium falciparum [1]): 4580 nM
IC50 (Plasmodium falciparum [2]): 90 nM
IC50 (L6): 5250 nM
selectivity ratio [3]: 1.15

Compound: CCN(CC)CCNc1nc2cc(Nc3ccnc4cc(Cl)ccc34)ccc2[nH]1
IC50 (Plasmodium falciparum [1]): 200 nM
IC50 (Plasmodium falciparum [2]): 827 nM
IC50 (L6): 15300 nM
selectivity ratio [3]: 76.4

Compound: Clc1ccc2c(Nc3ccc(NCCN4CCCC4)nc3)ccnc2c1
IC50 (Plasmodium falciparum [1]): 21 nM
IC50 (Plasmodium falciparum [2]): 92 nM
IC50 (L6): 18600 nM
selectivity ratio [3]: 885
Ratio IC50 (Plasmodium falciparum [4]): 4.4

Compound: Clc1ccc2c(Nc3ccc(NCCN4CCOCC4)nc3)ccnc2c1
IC50 (Plasmodium falciparum [1]): 41 nM
IC50 (Plasmodium falciparum [2]): 73 nM
IC50 (L6): 47400 nM
selectivity ratio [3]: 1160
